Laboratory results reported in publication PMC5108082, “Pharmacokinetics, toxicity, and cytochrome P450 modulatory activity of plumbagin” (BMC Pharmacology & Toxicology, 2016).
Entries after “also recorded” stand apart in the source; their conditions may differ.

What was measured:
CYP2C19 = settings: cited from earlier work
Wistar rats = experiment: subacute toxicity test, daily oral dose for 28 days; format: in vivo, rat
Method: (§1) Plumbagin was dissolved with 20 % Tween-80 to obtain the desired concentrations. Wistar rats were fasting 2 h before administration of a single oral dose of the plumbagin. Animals were divided into eight groups of six (3 males and 3 females for each group). For the acute toxicity test, rats in each group were fed with plumbagin at a single oral dose of 500, 250, or 150 mg/kg body weight (1 mL); control group received a single oral dose of 20 % Tween-80 (1 mL). For the subacute toxicity test, rats in each group were fed with plumbagin at a daily dose of 100, 50, or 25 mg/kg body weight (1 mL) for 28 days; control group received a daily oral dose of 20 % Tween-80 for 28 days (1 mL).
(§2) General behavioral changes of each rat was observed continuously for 1 h after each dose, intermittently every 4 h, and thereafter over a period of 24 h. […] At the end of the observation period, all animals were sacrificed under ether anesthesia (isoflurane) and vital organs (liver, lung, kidney, heart, and spleen) were removed from all animals for gross and histopathological examination. Blood sample was collected from each rat through cardiac puncture for analysis of plasma chemistry (heparin as an anticoagulant) and blood hematology (EDTA as an anticoagulant).

[1] = as above; format: in vivo, rat; settings: both sexes, Wistar, rat, in vivo, rats, daily oral doses for 28 days
Method: as §1, §2

parasitemia = test system: parasitemia; design: method as in PMID 24410949; settings: 25 mg/kg body weight given for 4 days; cited from earlier work
[2] = test system: K1 chloroquine-resistant P. falciparum; settings: K1 clone; read-out: median IC50; cited from earlier work
in vivo = settings: male, Wistar, rat, po, 100 mg/kg
Method: Pharmacokinetic investigation was performed in 4 male Wistar rats (weighing 200–350 g) following a single oral dose of 100 mg/kg body weight plumbagin (1 mL). The control group received 20 % Tween-80 (1 mL). Blood samples (500 μL each) were collected from the tail vein of each rat at 0, 1, 2, 3, 5, 8, 24, 48, and 72 h after dosing. Plasma was separated from whole blood samples through centrifugation at 3000 × g for 10 min.
Concentrations of plumbagin in plasma and urine samples collected from all animals were measured using liquid chromatographic-mass spectrometry (LC-MS/MS) according to the previously described method with modifications. The limits of quantification (LOQ) and detection (LOD) for plumbagin were 5 and 2 ng/mL plasma, respectively. Recovery of the compound in plasma after sample preparation procedure was between 82 and 92 %. The assay intra- and inter-day coefficients of variation (% CV) were 0.7–4.7 % and 3.9–8.3 %, respectively. In brief, plasma sample (100 μL) was mixed with 10 ng/mL honokiol (5 μL) and ethyl acetate (1 mL) and centrifuged at 12,000 × g for 15 min. The upper layer was transferred to a new tube and evaporated to dryness under nitrogen flow. The dried residue was reconstituted with 100 μL of the mobile phase and a 5 μL aliquot was injected onto the LC–MS/MS. The samples were collected from the metabolic cages at 24, 48, 72, 96, and 120 h. All were centrifuged at 1500 × g for 10 min and the supernatant (100 μL) was extracted with ethyl acetate (1 mL). The extract was dried and the residue was reconstituted with 100 μL of the mobile phase and a 5 μL aliquot was injected onto the LC–MS/MS.
The LC-MS/MS system used consists of Agilent 1100 Separation Module (Agilent Technologies, CA, USA) solvent and sample delivery, Av QTRAP 5500 Triple Quadrupole Mass Spectrometer (AB Sciex, Foster City, CA, USA) equipped with CID, and Multiple Reactions Monitoring (MRM). Mass spectrometric analysis was performed in the negative-ion mode (ESI). The following parameters of the turbo ion spray were used: ion spray voltage = −4500 V; the ion source gas 1 (GS1), gas 2 (GS2), curtain gas (CUR) and collision gas (CAD) were 50, 60, 25 and 5, respectively; and the desolvation gas (nitrogen) heated to 500 °C. Separation was performed using Hypersil gold reversed-phase C18 column (50 mm × 4.6 mm i.d., 5 μM: Thermo Scientific, Fremont, CA, USA) with the mobile phase consisting of a mixture of (A) water containing 0.1 % formic acid and (B) 100 % methanol, running with gradient mode at the flow rate of 0.6 mL/min at 25 °C (Table 1). On the basic of the full-scan mass spectra of each analyze, the most abundant ions were selected and the mass spectrometer was set to monitor the transitions of the precursors to the product ions as follows: m/z 187– >159 for plumbagin, and 265– >224 for honokiol (internal standard). The system was controlled by Analyst^TM software (AB Sciex, Foster City, CA, USA).
Pharmacokinetic parameters were determined using a non-compartmental analysis using WinNonLin^TM software (version 6.3, Pharsights, Certara, USA). Concentrations of drugs lower than the limit of quantification (LOQ) were expressed as zero (undetectable). The Cmax (maximum concentration); tmax (time of maximum concentration) were determined by direct inspection of the plasma concentration–time data. […] The extrapolated AUC from the last sampling time to infinity was estimated from Ct/elimination rate constant (λz). λz was calculated from at least five concentration–time points of elimination phase. Apparent oral clearance (CL/F) was calculated as dose/AUC0−∞. Volume of distribution (Vz/F) was calculated as CL/F/z, and the terminal half-life (t1/2z) was calculated as 0.693/λz. Mean residence time (MRT) was calculated from the ratio of AUMC0-α)/AUC0−∞.

[3] = 25 mg/kg body weight daily for 28 days
[4] = 25 mg/kg daily oral for 28 days, median (interquartile range)

For `CC1=CC(=O)c2c(O)cccc2C1=O` [plumbagin, 5-hydroxy-2-methyl-1,4-naphthoquinone], the IC50 (CYP2C19) is given as 780 nM, the “behavior, signs of toxicity, water and food consumption, body weight” value (Wistar rats; [3]) is given as “no abnormality in behavior, sign of toxicity, nor changes in water and food consumption, as well as body weights” and the “histopathological examination (liver, kidney, heart, spleen, lung)” value (Wistar rats; [3]) is given as “no significant change in size and morphology”. The survival (Wistar rats; [3]) was “all rats survived”, the “changes in blood chemistry and hematology” value (Wistar rats; 25 mg/kg body weight daily for 28 days vs control) was “no significant changes in blood chemistry and hematology; also recorded: no significant change in hematological and blood biochemistry profiles” and the Blood morphology (Wistar rats; 25 mg/kg daily oral for 28 days) was “Normal”. The ALT (Wistar rats; [4]) was 30 (11) U/L, the AST (Wistar rats; [4]) was 101 (15) U/L and the BUN (Wistar rats; [4]) was 22.0 (7.5) mg/dL. The Cholesterol (Wistar rats; [4]) was 73 (6) mg/dL, the Creatinine (Wistar rats; [4]) was 0.50 (0.00) mg/dL and the Eosinophils (Wistar rats; [4]) was 0.00 (1.00) ×10^3/μL. For the same molecule, the Glucose (Wistar rats; [4]) was 230 mg/dL, the Hematocrit (Wistar rats; [4]) was 47.8 (2.6) % and the Hemoglobin (Wistar rats; [4]) was 14.4 (1.2) g/dL. The Lymphocytes (Wistar rats; [4]) was 7.59 (0.31) ×10^3/μL, the Monocytes (Wistar rats; [4]) was 0.00 (1.00) ×10^3/μL and the Neutrophils (Wistar rats; [4]) was 2.20 (0.63) ×10^3/μL. The Platelets count (Wistar rats; [4]) was 885.50 (73.75) ×10^3/μL, the RBC (Wistar rats; [4]) was 8.16 (0.72) ×10^6/μL and the Triglyceride (Wistar rats; [4]) was 110 (9) mg/dL. The WBC (Wistar rats; [4]) was 9.40 (0.65) ×10^3/μL, the Glucose (Wistar rats; 25 mg/kg daily oral for 28 days, median (interquartile range), listed as Plumbagin) was 230 (59) mg/dL and the rats died (Wistar rats; 50 mg/kg body weight daily) was “two rats”. The “rats with toxic signs and symptoms” value (Wistar rats; 50 mg/kg body weight daily) was 2/6, the time to death (Wistar rats; 50 mg/kg body weight daily) was 12 to 16 days and the rats died (Wistar rats; 100 mg/kg body weight daily) was “All rats”. For the same molecule, the “rats with toxic signs and symptoms” value (Wistar rats; 100 mg/kg body weight daily) was 6/6, the time to death (Wistar rats; 100 mg/kg body weight daily) was 6 to 10 days and the gender-specific toxicity (Wistar rats; all dose levels) was “No gender-specific toxicity was observed”. The LD50 at 28 days ([1]; read-out: 50 % lethal dose (LD50), subacute toxicity) was 50 to 100 mg/kg, the MTD at 28 days ([1]; read-out: maximum tolerated dose, subacute toxicity) was 25 mg/kg and the “antimalarial activity in vivo (reduction of parasitemia, prolongation of survival time)” value (parasitemia) was “weak”. The IC50 [2] was 370 nM, the AUC(0-inf) (in vivo) was 6710 ng·h/mL and the AUC(0-t) (in vivo) was 6510 ng·h/mL. The CL/F (in vivo) was 250 mL/min/kg, the Cmax (in vivo) was 460 ng/mL and the Tmax (in vivo) was 5 h. For the same molecule, the Vd/F (in vivo) was 220 L/kg, the “t1/2 (elimination half-life)” value (in vivo) was 9.63 (3.04) h and the “time up to which detected in systemic circulation” value (in vivo) was 48 h. For the same molecule, the “time up to which detected in urine (complete elimination in urine)” value (in vivo) was 96 h, the “plumbagin excreted in urine” value (in vivo; 72 h) was 15 (9) μg and the half-life (in vivo; t1/2 (elimination half-life)) was ~9.6 h.
